Patent publication US20220306609A1, “BICYCLIC COMPOUNDS AS ANDROGEN RECEPTOR MODULATORS” (NIDO BIOSCIENCES, INC., priority 2021, published 2022)

target: T1, androgen receptor (AR) (Homo sapiens, UniProt P10275, T878A); experiment: LNCaP ARR2PB-FireflyLuc / CMV-RenillaLuc reporter assay, antagonist mode; format: cell-based; details: LNCaP cells expressing ARR2PB-FireflyLuc and CMV-RenillaLuc; +/- 0.5 nM DHT; 48 h at 37° C
T1 construct: LNCaP cells expressing ARR2PB-FireflyLuc and CMV-RenillaLuc; endogenous in cells; host or cells: LNCaP
T1 sequence (P10275 1-920 T878A): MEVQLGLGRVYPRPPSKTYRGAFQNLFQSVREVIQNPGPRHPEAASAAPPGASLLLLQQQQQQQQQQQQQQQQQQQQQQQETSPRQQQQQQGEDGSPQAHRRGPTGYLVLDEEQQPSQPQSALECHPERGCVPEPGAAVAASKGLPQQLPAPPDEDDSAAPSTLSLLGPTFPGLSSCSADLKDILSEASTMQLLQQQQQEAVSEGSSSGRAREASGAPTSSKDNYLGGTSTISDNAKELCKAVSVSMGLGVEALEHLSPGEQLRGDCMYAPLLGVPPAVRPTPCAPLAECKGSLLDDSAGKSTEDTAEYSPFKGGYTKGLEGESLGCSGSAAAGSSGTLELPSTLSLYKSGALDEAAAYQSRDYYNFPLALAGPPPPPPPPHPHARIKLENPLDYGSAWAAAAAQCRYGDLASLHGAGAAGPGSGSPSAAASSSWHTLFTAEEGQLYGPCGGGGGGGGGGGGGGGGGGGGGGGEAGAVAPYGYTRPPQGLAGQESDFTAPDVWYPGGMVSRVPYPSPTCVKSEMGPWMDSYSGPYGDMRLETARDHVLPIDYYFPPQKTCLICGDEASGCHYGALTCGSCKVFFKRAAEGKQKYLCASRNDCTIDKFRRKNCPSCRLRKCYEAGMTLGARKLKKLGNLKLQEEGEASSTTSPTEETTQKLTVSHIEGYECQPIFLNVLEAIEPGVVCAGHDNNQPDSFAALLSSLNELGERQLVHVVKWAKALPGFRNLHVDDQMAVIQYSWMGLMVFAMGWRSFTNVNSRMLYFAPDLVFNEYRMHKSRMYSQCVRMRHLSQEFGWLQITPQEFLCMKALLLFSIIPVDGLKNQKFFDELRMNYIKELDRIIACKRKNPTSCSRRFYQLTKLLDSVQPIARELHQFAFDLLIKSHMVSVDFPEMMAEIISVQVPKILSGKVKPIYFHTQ
Method: LNCaP cells expressing ARR2PB-FireflyLuc and CMV-RenillaLuc were treated with indicated concentrations of test compounds, enzalutamide ([…]), or DHT (positive control)+/−0.5 nM DHT for 48 h at 37° C. Fluorescent signals were read with the ImageXpress Micro Confocal System. Remaining activity (antagonist mode) was calculated as % Remaining Activity=100×[(ReadSample−[…])/(HCave−LCave)] where HC is cells treated with 0.5 nM DHT only and LC is cells treated with 10 uM enzalutamide+0.5 nM DHT. Activation (agonist mode) was calculated as % Activation=100×[(ReadSample−LCave)/(HCave−LCave)] where HC is cells treated with 1 uM DHT and LC is cells treated with DMSO. Dose response curves and IC50 values were calculated using non-linear regression analysis in XLfit.
The designation “A” indicates an IC50 value of >10 μM, “B” indicates an IC50 value between 1 μM and 10 μM; “C” indicates an IC50 value between 100 nM and 1 μM; and “D” indicates an IC50 value of less than 100 nM.

SMILES	IC50
CCn1nc(-c2c[nH]c3c(C#N)cccc23)c(C)cc1=O [Compound 005, 3-(1-ethyl-4-methyl-6-oxopyridazin-3-yl)-1H-indole-7-carbonitrile]	1000 to 10000 nM
N#Cc1cccc2c(-c3ccc(=O)n(CC(F)F)n3)c[nH]c12 [Compound 004, 3-[1-(2,2-difluoroethyl)-6-oxopyridazin-3-yl]-1H-indole-7-carbonitrile]	100 to 1000 nM
CCn1nc(-c2c[nH]c3c(C#N)cccc23)cc1C [Compound 011, 3-(1-ethyl-5-methylpyrazol-3-yl)-1H-indole-7-carbonitrile]	100 to 1000 nM
CCN1N=C(c2c[nH]c3c(C#N)cccc23)CCC1=O [Compound 001, 3-(1-ethyl-6-oxo-4,5-dihydropyridazin-3-yl)-1H-indole-7-carbonitrile]	100 to 1000 nM
CC(C)(O)Cn1ccc(-c2c[nH]c3c(C#N)cccc23)n1 [Compound 010, 3-[1-(2-hydroxy-2-methylpropyl)pyrazol-3-yl]-1H-indole-7-carbonitrile]	> 10000 nM
CCn1nc(-c2c[nH]c3c(C#N)cccc23)ccc1=O [Compound 002, 3-(1-ethyl-6-oxopyridazin-3-yl)-1H-indole-7-carbonitrile]	< 100 nM
CCn1nc(-c2c[nH]c3c(C#N)cccc23)cc(OC)c1=O [Compound 006, 3-(1-ethyl-5-methoxy-6-oxopyridazin-3-yl)-1H-indole-7-carbonitrile]	1000 to 10000 nM

Further lines, results first:

IC50	SMILES
> 10000 nM	CCn1nc(-c2c[nH]c3c(Cl)nccc23)ccc1=O [Compound 003, 6-[7-chloro-1H-pyrrolo[2,3-c]pyridin-3-yl]-2-ethylpyridazin-3-one]
< 100 nM	CCn1ccc(-c2c[nH]c3c(C#N)cccc23)n1 [Compound 008, 3-(1-ethylpyrazol-3-yl)-1H-indole-7-carbonitrile]
100 to 1000 nM	N#Cc1cccc2c(-c3ccn(C4CC4)n3)c[nH]c12 [Compound 009, 3-(1-cyclopropylpyrazol-3-yl)-1H-indole-7-carbonitrile]
1000 to 10000 nM	CCn1cc(-c2c[nH]c3c(C#N)cccc23)cn1 [Compound 007, 3-(1-ethylpyrazol-4-yl)-1H-indole-7-carbonitrile]
< 100 nM	CCn1nc(C)cc1-c1c[nH]c2c(C#N)cccc12 [Compound 012, 3-(2-ethyl-5-methylpyrazol-3-yl)-1H-indole-7-carbonitrile]
